# Results published in the CheMixHub ionic liquid set.
# ± gives the uncertainty stated by the source.
# Experiment: xn = mol fraction of the nth substance listed
compound,measurement,setting,value
CCCC[N+](CCCC)(CCCC)CCCC.O=S(=O)([O-])O + O,viscosity,"298.15 K, 101 kPa, x1 = 9.009e-05",0.894 ± 0.008 mPa·s
same,viscosity,"298.15 K, 101 kPa, x1 = 0.0001802",0.896 ± 0.008 mPa·s
same,viscosity,"298.15 K, 101 kPa, x1 = 0.0002702",0.899 ± 0.008 mPa·s
same,viscosity,"298.15 K, 101 kPa, x1 = 0.0003603",0.901 ± 0.008 mPa·s
same,viscosity,"308.15 K, 101 kPa, x1 = 9.009e-05",0.723 ± 0.007 mPa·s
same,viscosity,"308.15 K, 101 kPa, x1 = 0.0001802",0.726 ± 0.007 mPa·s
same,viscosity,"308.15 K, 101 kPa, x1 = 0.0002702",0.728 ± 0.007 mPa·s
same,viscosity,"308.15 K, 101 kPa, x1 = 0.0003603",0.73 ± 0.007 mPa·s
same,viscosity,"318.15 K, 101 kPa, x1 = 9.009e-05",0.602 ± 0.006 mPa·s
same,viscosity,"318.15 K, 101 kPa, x1 = 0.0001802",0.603 ± 0.006 mPa·s
same,viscosity,"318.15 K, 101 kPa, x1 = 0.0002702",0.605 ± 0.006 mPa·s
same,viscosity,"318.15 K, 101 kPa, x1 = 0.0003603",0.608 ± 0.006 mPa·s
CC[n+]1ccn(CCOC)c1.N#C[S-] + CCCCO,viscosity,"288.15 K, 100 kPa, x1 = 0.1",4.85 ± 0.27 mPa·s
same,viscosity,"288.15 K, 100 kPa, x1 = 0.1999",6.76 ± 0.38 mPa·s
same,viscosity,"288.15 K, 100 kPa, x1 = 0.2996",9.62 ± 0.53 mPa·s
same,viscosity,"288.15 K, 100 kPa, x1 = 0.4001",13.89 ± 0.77 mPa·s
same,viscosity,"288.15 K, 100 kPa, x1 = 0.4996",20 ± 1.1 mPa·s
same,viscosity,"288.15 K, 100 kPa, x1 = 0.5995",27.4 ± 1.5 mPa·s
same,viscosity,"288.15 K, 100 kPa, x1 = 0.6979",40.1 ± 2.2 mPa·s
same,viscosity,"288.15 K, 100 kPa, x1 = 0.7993",53 ± 2.9 mPa·s
same,viscosity,"288.15 K, 100 kPa, x1 = 0.9",72 ± 4 mPa·s
same,viscosity,"288.15 K, 100 kPa, x1 = 1",93.1 ± 5.3 mPa·s
same,viscosity,"293.15 K, 100 kPa, x1 = 0.1",4.22 ± 0.23 mPa·s
same,viscosity,"293.15 K, 100 kPa, x1 = 0.1999",5.84 ± 0.32 mPa·s
same,viscosity,"293.15 K, 100 kPa, x1 = 0.2996",8.21 ± 0.46 mPa·s
same,viscosity,"293.15 K, 100 kPa, x1 = 0.4001",11.73 ± 0.65 mPa·s
same,viscosity,"293.15 K, 100 kPa, x1 = 0.4996",16.88 ± 0.93 mPa·s
same,viscosity,"293.15 K, 100 kPa, x1 = 0.5995",22.5 ± 1.3 mPa·s
same,viscosity,"293.15 K, 100 kPa, x1 = 0.6979",32.3 ± 1.8 mPa·s
same,viscosity,"293.15 K, 100 kPa, x1 = 0.7993",42.1 ± 2.3 mPa·s
same,viscosity,"293.15 K, 100 kPa, x1 = 0.9",56.5 ± 3.1 mPa·s
same,viscosity,"293.15 K, 100 kPa, x1 = 1",70.8 ± 3.9 mPa·s
same,viscosity,"298.15 K, 100 kPa, x1 = 0.1",3.73 ± 0.21 mPa·s
same,viscosity,"298.15 K, 100 kPa, x1 = 0.1999",5.1 ± 0.28 mPa·s
same,viscosity,"298.15 K, 100 kPa, x1 = 0.2996",7.11 ± 0.39 mPa·s
same,viscosity,"298.15 K, 100 kPa, x1 = 0.4001",10.04 ± 0.56 mPa·s
same,viscosity,"298.15 K, 100 kPa, x1 = 0.4996",14.26 ± 0.79 mPa·s
same,viscosity,"298.15 K, 100 kPa, x1 = 0.5995",19 ± 1 mPa·s
same,viscosity,"298.15 K, 100 kPa, x1 = 0.6979",26.4 ± 1.5 mPa·s
same,viscosity,"298.15 K, 100 kPa, x1 = 0.7993",34.1 ± 1.9 mPa·s
same,viscosity,"298.15 K, 100 kPa, x1 = 0.9",44.9 ± 2.5 mPa·s
same,viscosity,"298.15 K, 100 kPa, x1 = 1",55.8 ± 3 mPa·s
same,viscosity,"303.15 K, 100 kPa, x1 = 0.1",3.3 ± 0.18 mPa·s
same,viscosity,"303.15 K, 100 kPa, x1 = 0.1999",4.49 ± 0.25 mPa·s
same,viscosity,"303.15 K, 100 kPa, x1 = 0.2996",6.22 ± 0.34 mPa·s
same,viscosity,"303.15 K, 100 kPa, x1 = 0.4001",8.68 ± 0.48 mPa·s
same,viscosity,"303.15 K, 100 kPa, x1 = 0.4996",12.18 ± 0.67 mPa·s
same,viscosity,"303.15 K, 100 kPa, x1 = 0.5995",16.18 ± 0.89 mPa·s
same,viscosity,"303.15 K, 100 kPa, x1 = 0.6979",22 ± 1.2 mPa·s
same,viscosity,"303.15 K, 100 kPa, x1 = 0.7993",28 ± 1.5 mPa·s
same,viscosity,"303.15 K, 100 kPa, x1 = 0.9",36.4 ± 2 mPa·s
same,viscosity,"303.15 K, 100 kPa, x1 = 1",44.3 ± 2.4 mPa·s
same,viscosity,"308.15 K, 100 kPa, x1 = 0.1",2.93 ± 0.16 mPa·s
same,viscosity,"308.15 K, 100 kPa, x1 = 0.1999",4.01 ± 0.22 mPa·s
same,viscosity,"308.15 K, 100 kPa, x1 = 0.2996",5.48 ± 0.3 mPa·s
same,viscosity,"308.15 K, 100 kPa, x1 = 0.4001",7.57 ± 0.42 mPa·s
same,viscosity,"308.15 K, 100 kPa, x1 = 0.4996",10.46 ± 0.58 mPa·s
same,viscosity,"308.15 K, 100 kPa, x1 = 0.5995",13.82 ± 0.76 mPa·s
same,viscosity,"308.15 K, 100 kPa, x1 = 0.6979",18.7 ± 1 mPa·s
same,viscosity,"308.15 K, 100 kPa, x1 = 0.7993",23.4 ± 1.3 mPa·s
same,viscosity,"308.15 K, 100 kPa, x1 = 0.9",30 ± 1.6 mPa·s
same,viscosity,"308.15 K, 100 kPa, x1 = 1",36 ± 2 mPa·s
same,viscosity,"313.15 K, 100 kPa, x1 = 0.1",2.62 ± 0.15 mPa·s
same,viscosity,"313.15 K, 100 kPa, x1 = 0.1999",3.57 ± 0.2 mPa·s
same,viscosity,"313.15 K, 100 kPa, x1 = 0.2996",4.86 ± 0.27 mPa·s
same,viscosity,"313.15 K, 100 kPa, x1 = 0.4001",6.66 ± 0.37 mPa·s
same,viscosity,"313.15 K, 100 kPa, x1 = 0.4996",9.07 ± 0.5 mPa·s
same,viscosity,"313.15 K, 100 kPa, x1 = 0.5995",11.91 ± 0.66 mPa·s
same,viscosity,"313.15 K, 100 kPa, x1 = 0.6979",16.06 ± 0.88 mPa·s
same,viscosity,"313.15 K, 100 kPa, x1 = 0.7993",19.9 ± 1.1 mPa·s
same,viscosity,"313.15 K, 100 kPa, x1 = 0.9",25.1 ± 1.4 mPa·s
same,viscosity,"313.15 K, 100 kPa, x1 = 1",29.7 ± 1.6 mPa·s
same,viscosity,"318.15 K, 100 kPa, x1 = 0.1",2.35 ± 0.13 mPa·s
same,viscosity,"318.15 K, 100 kPa, x1 = 0.1999",3.21 ± 0.18 mPa·s
same,viscosity,"318.15 K, 100 kPa, x1 = 0.2996",4.34 ± 0.24 mPa·s
same,viscosity,"318.15 K, 100 kPa, x1 = 0.4001",5.9 ± 0.33 mPa·s
same,viscosity,"318.15 K, 100 kPa, x1 = 0.4996",7.94 ± 0.44 mPa·s
same,viscosity,"318.15 K, 100 kPa, x1 = 0.5995",10.35 ± 0.57 mPa·s
same,viscosity,"318.15 K, 100 kPa, x1 = 0.6979",13.87 ± 0.76 mPa·s
same,viscosity,"318.15 K, 100 kPa, x1 = 0.7993",17.27 ± 0.95 mPa·s
same,viscosity,"318.15 K, 100 kPa, x1 = 0.9",21.3 ± 1.2 mPa·s
same,viscosity,"318.15 K, 100 kPa, x1 = 1",24.9 ± 1.4 mPa·s
